≈ marks a conversion by molar mass, not a printed value.
How the values were obtained:
Assay type in all cases: functional, cell-based
XF498 = assay: Cytotoxicity against Homo sapiens (human) XF498 cells after 72 hr by MTT assay; conditions: XF498, 72 h
HCT-15 = assay: Cytotoxicity against Homo sapiens (human) HCT15 cells after 72 hr by MTT assay; conditions: HCT-15, 72 h
SK-OV-3 = assay: Cytotoxicity against Homo sapiens (human) SKOV3 cells after 72 hr by MTT assay; conditions: SK-OV-3, 72 h
SK-MEL-2 = assay: Cytotoxicity against Homo sapiens (human) SK-MEL-2 cells after 72 hr by MTT assay; conditions: SK-MEL-2, 72 h
A549 = assay: Cytotoxicity against Homo sapiens (human) A549 cells after 72 hr by MTT assay; conditions: A549, 72 h

Structure (SMILES) | IC50 (XF498) [µg/mL] | IC50 (HCT-15) [µg/mL] | IC50 (SK-OV-3) [µg/mL] | IC50 (SK-MEL-2) [µg/mL] | IC50 (A549) [µg/mL]
O=C1C(Nc2ccc(F)cc2)=C(Cl)C(=O)c2ncncc21 | 0.19 (≈ 0.626 µM) | 0.04 (≈ 0.132 µM) | 0.27 (≈ 0.889 µM) | 0.08 (≈ 0.263 µM) | 0.33 (≈ 1.09 µM)
CCOc1ccc(NC2=C(Cl)C(=O)c3ncncc3C2=O)cc1 | 0.3 (≈ 0.91 µM) | 0.04 (≈ 0.121 µM) | 0.22 (≈ 0.667 µM) | 0.08 (≈ 0.243 µM) | 0.33 (≈ 1 µM)
O=C1C(Nc2ccc(Cl)cc2)=C(Cl)C(=O)c2ncccc21 | 3.31 (≈ 10.4 µM) | 0.34 (≈ 1.07 µM) | 1.33 (≈ 4.17 µM) | 1.3 (≈ 4.07 µM) | 5.03 (≈ 15.8 µM)
O=C1C(Nc2ccc([N+](=O)[O-])cc2)=C(Cl)C(=O)c2ncncc21 | 15.4 (≈ 46.4 µM) | 0.3 (≈ 0.907 µM) | 1.28 (≈ 3.87 µM) | 0.61 (≈ 1.84 µM) | 2.77 (≈ 8.38 µM)
O=C1C(Nc2ccc(F)cc2)=C(Cl)C(=O)c2ncccc21 | 0.36 (≈ 1.19 µM) | 0.18 (≈ 0.595 µM) | 0.5 (≈ 1.65 µM) | 1.39 (≈ 4.59 µM) | 1.25 (≈ 4.13 µM)
O=C1C(Nc2ccccc2)=C(Cl)C(=O)c2ncccc21 | 1.33 (≈ 4.67 µM) | 0.74 (≈ 2.6 µM) | 1.34 (≈ 4.71 µM) | 1.42 (≈ 4.99 µM) | 2.3 (≈ 8.08 µM)
O=C1C(Nc2ccc(C(F)(F)F)cc2)=C(Cl)C(=O)c2ncncc21 | 0.29 (≈ 0.82 µM) | 0.03 (≈ 0.0848 µM) | 0.21 (≈ 0.594 µM) | 0.06 (≈ 0.17 µM) | 0.32 (≈ 0.905 µM)
O=C1C(Nc2ccc(Br)cc2)=CC(=O)c2ncncc21 | 0.03 (≈ 0.0909 µM) | 0.01 (≈ 0.0303 µM) | 0.02 (≈ 0.0606 µM) | 0.02 (≈ 0.0606 µM) | 0.09 (≈ 0.273 µM)
O=C1C(Nc2ccccc2)=C(Cl)C(=O)c2ncncc21 | 0.28 (≈ 0.98 µM) | 0.03 (≈ 0.105 µM) | 0.19 (≈ 0.665 µM) | 0.04 (≈ 0.14 µM) | 0.33 (≈ 1.16 µM)
O=C1C(Nc2ccc(I)cc2)=C(Cl)C(=O)c2ncncc21 | 1.33 (≈ 3.23 µM) | 0.28 (≈ 0.68 µM) | 0.27 (≈ 0.656 µM) | 0.3 (≈ 0.729 µM) | 1.51 (≈ 3.67 µM)
O=C1C(Nc2ccc(Br)cc2)=C(Cl)C(=O)c2ncccc21 | 2.83 (≈ 7.78 µM) | 0.34 (≈ 0.935 µM) | 0.92 (≈ 2.53 µM) | 1.26 (≈ 3.47 µM) | 4.28 (≈ 11.8 µM)
O=C1C(Cl)=C(Nc2ccc(Cl)cc2)C(=O)c2cnccc21 | 1.28 (≈ 4.01 µM) | 0.18 (≈ 0.564 µM) | 0.97 (≈ 3.04 µM) | 0.66 (≈ 2.07 µM) | 1.1 (≈ 3.45 µM)
O=C1C(Cl)=C(Nc2ccc(F)cc2)C(=O)c2cnccc21 | 1.54 (≈ 5.09 µM) | 0.31 (≈ 1.02 µM) | 1.86 (≈ 6.14 µM) | 1.22 (≈ 4.03 µM) | 1.27 (≈ 4.2 µM)
O=C1C(Cl)=C(Nc2ccc(I)cc2)C(=O)c2cnccc21 | 0.04 (≈ 0.0974 µM) | 0.01 (≈ 0.0244 µM) | 0.04 (≈ 0.0974 µM) | 0.02 (≈ 0.0487 µM) | 0.27 (≈ 0.658 µM)
O=C1C(Nc2ccc(Cl)cc2)=C(Cl)C(=O)c2ncncc21 | 0.4 (≈ 1.25 µM) | 0.29 (≈ 0.906 µM) | 0.31 (≈ 0.968 µM) | 0.3 (≈ 0.937 µM) | 0.3 (≈ 0.937 µM)
O=C1C(Cl)=C(Nc2ccc(Br)cc2)C(=O)c2cnccc21 | 0.22 (≈ 0.605 µM) | 0.1 (≈ 0.275 µM) | 0.29 (≈ 0.798 µM) | 0.23 (≈ 0.633 µM) | 1.96 (≈ 5.39 µM)
Cc1ccc(NC2=C(Cl)C(=O)c3ncccc3C2=O)cc1 | 1.26 (≈ 4.22 µM) | 0.33 (≈ 1.1 µM) | 1.27 (≈ 4.25 µM) | 0.42 (≈ 1.41 µM) | 1.14 (≈ 3.82 µM)
O=C1C(Nc2ccc(F)cc2)=CC(=O)c2ncncc21 | 0.04 (≈ 0.149 µM) | 0.02 (≈ 0.0743 µM) | 0.07 (≈ 0.26 µM) | 0.05 (≈ 0.186 µM) | 1.08 (≈ 4.01 µM)
O=C1C(Nc2ccc(OC(F)(F)F)cc2)=C(Cl)C(=O)c2ncncc21 | 0.23 (≈ 0.622 µM) | 0.22 (≈ 0.595 µM) | 0.27 (≈ 0.73 µM) | 0.29 (≈ 0.784 µM) | 0.37 (≈ 1 µM)
O=C1C(Nc2ccc(I)cc2)=CC(=O)c2ncncc21 | 0.04 (≈ 0.106 µM) | 0.01 (≈ 0.0265 µM) | 0.04 (≈ 0.106 µM) | 0.02 (≈ 0.053 µM) | 0.27 (≈ 0.716 µM)
O=C1C(Nc2ccc(I)cc2)=C(Cl)C(=O)c2ncccc21 | 3.61 (≈ 8.79 µM) | 1.27 (≈ 3.09 µM) | 1.62 (≈ 3.95 µM) | 3.3 (≈ 8.04 µM) | 4.29 (≈ 10.4 µM)
O=C1C(Nc2ccccc2)=CC(=O)c2ncncc21 | 0.01 (≈ 0.0398 µM) | 0.01 (≈ 0.0398 µM) | < 0.01 | 0.01 (≈ 0.0398 µM) | 0.02 (≈ 0.0796 µM)
CCOc1ccc(NC2=CC(=O)c3ncncc3C2=O)cc1 | 0.03 (≈ 0.102 µM) | 0.02 (≈ 0.0677 µM) | 0.02 (≈ 0.0677 µM) | 0.02 (≈ 0.0677 µM) | 0.16 (≈ 0.542 µM)
Cc1ccc(NC2=CC(=O)c3ncncc3C2=O)cc1 | 0.13 (≈ 0.49 µM) | 0.01 (≈ 0.0377 µM) | 0.03 (≈ 0.113 µM) | 0.02 (≈ 0.0754 µM) | 0.02 (≈ 0.0754 µM)
N#Cc1ccc(NC2=C(Cl)C(=O)c3ncncc3C2=O)cc1 | 1.68 (≈ 5.41 µM) | 0.24 (≈ 0.772 µM) | 0.31 (≈ 0.998 µM) | 0.62 (≈ 2 µM) | 1.34 (≈ 4.31 µM)
O=C1C(Nc2ccc(Cl)cc2)=CC(=O)c2ncncc21 | 0.01 (≈ 0.035 µM) | < 0.01 | 0.01 (≈ 0.035 µM) | 0.01 (≈ 0.035 µM) | 0.02 (≈ 0.07 µM)

Reference: ChEMBL document CHEMBL3046012, “Synthesis and Cytotoxic Activity of 6-(Substituted-Phenyl)Amino-5,8-Quinazolinediones” (Med Chem Res, 2004)
